Assay results reported in patent US11059795B2, “Androgen receptor modulators and methods for their use” (ESSA Pharma, Inc., priority 2018, dated 2021).

What was measured:
[1] = Hepatocyte stability assay, mouse hepatocytes; type: in vitro ADME; settings: mouse, cryopreserved hepatocytes, 1 μM compound, 0.5 million cells/mL, 37° C., read-out: MH +/− NADPH: Clint (μL/min/million cells)
Source text: The […] of in vitro intrinsic clearance (Clint) for drug candidates in the early discovery stage is common practice in the pharmaceutical industry. The Clint values of drug candidates can help to confirm whether metabolism is the main clearance pathway when it is compared with the total body clearance in vivo. Hepatocytes are among the routinely used in vitro systems for measuring clearance. Hepatocytes have been reported to retain most of the phase I and phase II metabolic activities, and therefore, it is a useful tool to estimate the intrinsic clearance for potential drug candidates.
Metabolic stability of testing compound were be evaluated using human and mouse hepatocytes and can also be use rat, mouse, or other animal hepatocytes to predict intrinsic clearance. Cryopreserved hepatocytes were removed from the liquid nitrogen tank and thawed in a 37° C. water bath. As soon as the cells pulled away from the vial wall, they were decanted into 48 ml of warm HT medium. Cells were centrifuged for four minutes at 420 rpm (50 g). After removing the supernatant, pellet was re-suspended in warm DMEM medium. Cell density was counted by a hemacytometer.
The assay was carried out in 96-well microtiter plates. Compounds were incubated for 0, 60, 120, and 180 minutes at 37° C. with hepatocytes. Reaction mixtures (50 μL) contained a final concentration of 1 μM test compound, 0.5 million cells/mL hepatocytes in the DMEM medium. At each of the time points (for example, 0, 1, 2, and 3 hours), 200 μL of quench solution (100% acetonitrile with 0.1% formic acid) with internal standard was transferred to each well. Midazolam was included as a positive control to verify assay performance. Plates were sealed and centrifuged at 4° C. for 15 minutes at 4000 rpm. The supernatant is transferred to fresh plates for LC/MS/MS analysis.
Summarized conditions (customizable): [Compound]=[…], Positive control: midazolam and/or naloxone, [Hepatocyte]=0.5 million cells/Ml, time=0, 60, 120, and 180 min, t=37° C.
(§1) All samples were analyzed on LC/MS/MS using an AB Sciex API 4000 instrument, coupled to a Shimadzu LC-20AD LC Pump system. Analytical samples were separated using a Waters Atlantis T3 dC18 reverse phase HPLC column (20 mm×2.1 mm) at a flow rate of 0.5 mL/min. The mobile phase consisted of 0.1% formic acid in water (solvent A) and 0.1% formic acid in 100% acetonitrile (solvent B).
The extent of metabolism was calculated as the disappearance of the test compound, compared to the 0-min control reaction incubations. Initial rates were calculated for the compound concentration and used to determine t½ values and subsequently, the intrinsic clearance, Clint. Clint=(0.693)(1/t½(min))(mL incubation/million cells)

[2] = Microsomal stability assay, human liver microsomes; type: in vitro ADME; settings: pH 7.4, 1 μM compound, 0.5 mg/mL protein, 37° C., read-out: HLM +/− NADPH: Clint (μL/min/mg protein)
Summary of the method: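 Compound at 1 μM was incubated at 37° C with 0.5 mg/mL liver microsomes and 1 mM NADPH and/or 1 mM UDPGA (with alamethicin) in 100 mM potassium phosphate pH 7.4, 3 mM MgCl2. Samples were taken at 0, 15, 30 and 60 min and measured by LC/MS/MS. t½ came from compound loss relative to 0 min, and Clint was scaled with 45 mg microsomal protein/g liver.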

androgen receptor (AR) = biological target: T1, androgen receptor (AR) (Homo sapiens, UniProt P10275, T878A); assay: Androgen-induced PSA (6.1 kb)-luciferase reporter assay in LNCaP cells; type: cell-based; settings: LNCaP cells transfected with PSA (6.1 kb)-luciferase reporter, R1881 1 nM, 24 h; read-out: PSA-Luc IC50 Range
T1 construct: LNCaP cells were transiently transfected with the PSA (6.1 kb)-luciferase reporter for 24 h; endogenous in cells; host or cells: LNCaP
T1 sequence (P10275 1-920 T878A): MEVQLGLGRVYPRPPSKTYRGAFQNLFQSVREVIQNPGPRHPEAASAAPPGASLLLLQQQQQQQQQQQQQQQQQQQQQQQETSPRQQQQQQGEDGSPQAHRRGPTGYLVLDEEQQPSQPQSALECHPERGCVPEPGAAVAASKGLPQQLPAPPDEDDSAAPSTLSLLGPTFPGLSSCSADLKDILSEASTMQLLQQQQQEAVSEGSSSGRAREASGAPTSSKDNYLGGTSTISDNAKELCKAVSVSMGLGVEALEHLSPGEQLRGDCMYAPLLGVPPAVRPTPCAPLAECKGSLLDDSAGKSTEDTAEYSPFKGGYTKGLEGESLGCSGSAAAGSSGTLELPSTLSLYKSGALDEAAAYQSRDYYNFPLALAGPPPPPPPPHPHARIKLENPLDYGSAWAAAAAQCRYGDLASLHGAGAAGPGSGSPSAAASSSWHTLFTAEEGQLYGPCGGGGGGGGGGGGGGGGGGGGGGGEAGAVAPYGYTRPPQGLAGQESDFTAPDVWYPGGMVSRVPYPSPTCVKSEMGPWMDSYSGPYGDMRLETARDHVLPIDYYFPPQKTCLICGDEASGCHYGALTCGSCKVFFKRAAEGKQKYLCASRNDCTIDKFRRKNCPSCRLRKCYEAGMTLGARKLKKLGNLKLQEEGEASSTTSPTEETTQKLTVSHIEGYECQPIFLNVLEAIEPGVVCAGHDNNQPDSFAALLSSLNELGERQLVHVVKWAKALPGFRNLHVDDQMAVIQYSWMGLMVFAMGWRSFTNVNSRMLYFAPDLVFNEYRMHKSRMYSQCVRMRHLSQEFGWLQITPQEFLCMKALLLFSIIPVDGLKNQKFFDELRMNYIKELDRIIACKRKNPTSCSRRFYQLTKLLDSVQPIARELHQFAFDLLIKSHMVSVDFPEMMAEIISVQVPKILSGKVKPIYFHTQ
Summary of the method: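 LNCaP cells carrying a PSA (6.1 kb) promoter-luciferase reporter with AREs; androgen-induced firefly luciferase read from lysates for 10 s. RLU normalized to protein content; IC50 calculated from the normalized data.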

[3] = Microsomal stability assay, mouse liver microsomes; type: in vitro ADME; settings: mouse, liver microsomes, pH 7.4, mouse liver microsomes, 1 μM compound, 0.5 mg/mL protein, 37° C.; read-out: MLM +30/− NADPH: Clint (μL/min/mg protein)
Procedure: Microsomal stability assay is a widely used in vitro model to characterize the metabolic conversion by phase I enzymes, such as cytochrome P450 (CYP) enzymes. Since metabolism is known to be highly variable in different species, microsomal stability assay is commonly run in multiple species. Metabolic stability of testing compound can be evaluated using human, rat, mouse, or other animal liver or intestine microsomes to predict intrinsic clearance.
The assay was carried out in 96-well microtiter plates at 37° C. Reaction mixtures (25 μL) contained a final concentration of 1 μM test compound, 0.5 mg/mL liver microsomes protein, and 1 mM NADPH and/or 1 mM UDPGA (with alamethicin) in 100 mM potassium phosphate, pH 7.4 buffer with 3 mM MgCl2. The incubation was done with N=1, but duplicate incubation at each time point can be prepared if necessary. At each of the time points (for example, 0, 15, 30, and 60 minutes), 150 μL of quench solution (100% acetonitrile with 0.1% formic acid) with internal standard was transferred to each well. Besides the zero minute controls, mixtures containing the same components except the NADPH can also be prepared as the negative control. Verapamil was included as a positive control to verify assay performance. Plates were sealed, vortexed, and centrifuged at 4° C. for 15 minutes at 4000 rpm. The supernatant is transferred to fresh plates for LC/MS/MS analysis.
Summarized conditions: [Compound]=[…], [LM]=0.5 mg/mL, [NADPH]=1 mM and/or [UDPGA]=1 mM, Buffer=100 mM Potassium Phosphate, pH 7.4 with 3 mM MgCl2, Time=0, 15, 30, and 60 min, and Temperature=37° C.
as §1
The extent of metabolism is calculated as the disappearance of the test compound, compared to the 0-min time incubation. Initial rates are calculated for the compound concentration and used to determine half-life (t½) values and subsequently, the intrinsic clearance (Clint). Clint=(0.693)(1/t½ (min))(g of liver/kg of body weight)(mL incubation/mg of microsomal protein)(45 mg of microsomal protein/g of liver weight)

| hepatocyte CLint at 1 μM [1] [µL/min/1e6 cells] | microsomal CLint at 1 μM [2] [µL/min/mg] | IC50 (androgen receptor (AR)) [µM] | microsomal CLint at 1 μM [3] [µL/min/mg] | Compound |
| --- | --- | --- | --- | --- |
| ≥ 18 | < 12 | < 0.5 | < 12 | CC(C)(c1ccc(OCc2cnc(S(C)(=O)=O)s2)cc1)c1cc(Cl)c(OCCCl)c(C#N)c1 [Compound A149] |
| ≥ 18 | ≥ 48 | 0.5 to 2 | ≥ 48 | Cc1cc(C(C)(C)c2ccc(OC(C)c3ocnc3S(C)(=O)=O)cc2)cc(C#N)c1OCCCl (stereo not shown) [Compound A88] |
| < 4 | ≥ 48 | 0.5 to 2 | < 12 | CC(C)(c1ccc(OCc2cncnc2NS(C)(=O)=O)cc1)c1cc(Cl)c(OCCCl)c(C#N)c1 [Compound A148] |
| 4 to 18 | < 12 | 0.5 to 2 | 12 to 48 | Cc1nc(COc2ccc(C(C)(C)c3cc(Cl)c(OCCCl)c(C#N)c3)cc2)cc(NS(C)(=O)=O)n1 [Compound A99] |
| 4 to 18 | 12 to 48 | < 0.5 | 12 to 48 | CSc1ncc(COc2ccc(C(C)(C)c3cc(Cl)c(OCCCl)c(Cl)c3)cc2)o1 [Compound A111] |
| 4 to 18 | < 12 | < 0.5 | ≥ 48 | Cc1nc(NS(C)(=O)=O)nc(COc2ccc(C(C)(C)c3cc(Cl)c(OCCCl)c(C#N)c3)cc2)c1C [Compound A123] |
| < 4 | < 12 | < 0.5 | 12 to 48 | CC(C)(c1ccc(OCc2nc(NS(C)(=O)=O)cs2)cc1)c1cc(Cl)c(OCCCl)c(C#N)c1 [Compound A137, N-(2-((4-(2-(3-Chloro-4-(2-chloroethoxy)-5-cyanophenyl)propan-2-yl)phenoxy)methyl)thiazol-4-yl)methanesulfonamide] |
| 4 to 18 | < 12 | < 0.5 | 12 to 48 | COc1ncc(COc2ccc(C(C)(C)c3cc(Cl)c(OCCCl)c(C#N)c3)cc2)o1 [Compound A112, 3-chloro-2-(2-chloroethoxy)-5-(2-(4-((2-methoxyoxazol-5-yl)methoxy)phenyl)propan-2-yl)benzonitrile] |
| 4 to 18 | ≥ 48 | > 2 | < 12 | CC(C)(c1ccc(CNc2ccnc(NS(C)(=O)=O)n2)cc1)c1cc(Cl)c(OCCCl)c(C#N)c1 [Compound A120] |
| 4 to 18 | < 12 | < 0.5 | 12 to 48 | CC(C)(c1ccc(OCc2cncc(NS(C)(=O)=O)n2)cc1)c1cc(Cl)c(OCCCl)c(C#N)c1 [Compound A185, N-(6-((4-(2-(3-chloro-4-(2-chloroethoxy)-5-cyanophenyl)propan-2-yl)phenoxy)methyl)pyrazin-2-yl)methanesulfonamide] |
| 4 to 18 | < 12 | < 0.5 | 12 to 48 | CC(C)(c1ccc(OCc2ccnc(N3CCCCS3(=O)=O)n2)cc1)c1cc(Cl)c(OCCCl)c(C#N)c1 [Compound A198] |
| < 4 | 12 to 48 | 0.5 to 2 | < 12 | CC(C)(c1ccc(OCc2csc(NS(C)(=O)=O)n2)cc1)c1cc(Cl)c(OCCCl)c(C#N)c1 [Compound A134, N-(4-((4-(2-(3-chloro-4-(2-chloroethoxy)-5-cyanophenyl)propan-2-yl)phenoxy)methyl)thiazol-2-yl)methanesulfonamide] |
| ≥ 18 | < 12 | < 0.5 | ≥ 48 | CC(C)(c1ccc(OCc2ncoc2S(C)(=O)=O)cc1)c1cc(Cl)c(OCCCl)c(C#N)c1 [Compound A141] |
| < 4 | < 12 | < 0.5 | < 12 | CC(C)(c1ccc(OCc2nc(C#N)cs2)cc1)c1cc(Cl)c(OCCCl)c(C#N)c1 [Compound A172, 2-((4-(2-(3-chloro-4-(2-chloroethoxy)-5-cyanophenyl)propan-2-yl)phenoxy)methyl)thiazole-4-carbonitrile] |
| < 4 | 12 to 48 | 0.5 to 2 | < 12 | CC(C)(c1ccc(OCc2cc(NS(C)(=O)=O)ccn2)cc1)c1cc(Cl)c(OCCCl)c(C#N)c1 [Compound A196] |
| 4 to 18 | 12 to 48 | 0.5 to 2 | 12 to 48 | CC(Oc1ccc(C(C)(C)c2cc(Cl)c(OCCCl)c(Cl)c2)cc1)c1[nH]cnc1S(C)(=O)=O (stereo not shown) [Compound A116] |
